The values that follow come from patent US11203582B2, “Benzamide derivatives for inhibiting endoplasmic reticulum (ER) stress” (The Board of Regents of the University of Oklahoma, priority 2017, dated 2021).

For this assay, the system named is INS-1 cells. The experiment in a line: Cell survival assay, intracellular ATP (CellTiter-Glo), INS-1 cells treated with Tm. The note with it: for EC50: read-out: EC50; for improvement of EC50 value over the corresponding ethylene derivative: methylene vs ethylene linker (9e vs 8d; 11d vs 11b). The class given is cell-based, rat. The procedure:
A structure-activity-relationship (SAR) study was thus conducted to improve the weak potency of lead compound 1. Newly synthesized or commercially available compounds were tested for their β-cell-protective activity against ER stress in rat INS-1 β-cells. […] The maximum activities and the concentrations that reach half-maximal activity (EC50) of the compounds were evaluated by the degree of increase in viability of INS-1 cells co-treated with the compounds in the presence of Tm compared with Tm treatment alone. Maximum activity value in the tables is reported as % rescue from Tm (0.1 μg/mL)-induced reduction of cell viability. The values for Tm treatment alone and control (DMSO, without Tm) treatment are designated as 0% and 100%, respectively in all tables. EC50 values (the concentrations that reach half-maximal activity) for INS-1 cell viability were calculated with GraphPad Prism from the data of ten 2-fold serial titration points in all tables. All experiments were performed in triplicate in all tables.
INS-1 cells were cultured in RPMI 1640 (Corning, N.Y., USA) supplemented with 10% FBS (Atlanta Biologicals, Norcross, Ga.), HEPES (10 mM, Life Technologies, CA, USA), sodium pyruvate (1 mM, Corning), 2-mercaptoethanol (50 μM, Sigma, St Louis, Mo., USA) and antibiotics (100 UI/mL penicillin and 100 μg/mL streptomycin, Corning). βTC6 cells were cultured in DMEM (Corning) with 15% FBS, sodium pyruvate (1 mM, Corning), non-essential amino acids (1 mM, Thermo, Ill., USA), GlutaMAX (1 mM, Life Technologies) and antibiotics (100 UI/mL penicillin and 100 μg/mL streptomycin). All cells were grown at 37° C. in a humidified 5% CO2 atmosphere.
INS-1 cells or βTC6 cells were seeded at 3×10^3 cells/well in a 384-well plate and treated with compounds at the indicated concentrations. After 3 d treatment, the medium was aspirated and 20 μL/well of CellTiter-Glo reagent (Promega, WI, USA) was added for the detection of intracellular ATP levels. Cell viability was measured with an EnVision multilabel plate reader (PerkinElmer, MA, USA).
Background: Cellular ATP, detected with luciferase, serves as a proxy for viable cell number.

[1] abbreviates: INS-1 cells, Tm-induced ER stress.
Setting [2] is: Table 2, INS-1 cell viability, Tm 0.1 μg/mL, 72 h.
Setting [3] is: Table 2, INS-1 cells, Tm 0.1 μg/mL, 72 h, Tm alone 0%, DMSO control 100%.
Setting [4] is: Table 3, INS-1 cells, Tm 0.1 μg/mL, 72 h, Tm alone 0%, DMSO control 100%.
Setting [5] is: Table 3, INS-1 cell viability, Tm 0.1 μg/mL, 72 h.
[6] abbreviates: Table 4, INS-1 cell viability, Tm 0.1 μg/mL, 72 h.
Setting [7] is: Table 4, INS-1 cells, Tm 0.1 μg/mL, 72 h, Tm alone 0%, DMSO control 100%.
[8] abbreviates: Table 5, INS-1 cell viability, Tm 0.1 μg/mL, 72 h.
Setting [9] is: Table 5, INS-1 cells, Tm 0.1 μg/mL, 72 h, Tm alone 0%, DMSO control 100%.

Read-outs that look alike come from different tables or passages of the source. A value given as a limit tells only on which side of the number the result lay.

Regarding `O=C(NCCc1cccc(Cl)c1)c1ccc2c(c1)OCCO2` [Compound 1, N-(3-chlorophenethyl)-2,3-dihydrobenzo[b][1,4]dioxine-6-carboxamide], the “maximum activity (β-cell-protective activity)” value under setting [1] was determined as 42%. Besides, the EC50 was 21 µM (Rattus norvegicus, INS1, INS-1 cells, Tm-induced ER stress) and 21 ± 5.7 µM (Rattus norvegicus, INS1, Table 1, INS-1 cell viability, Tm 0.1 μg/mL, 72 h). Also, for the setting “Rattus norvegicus, INS1, Table 1, INS-1 cells, Tm 0.1 μg/mL, 72 h, Tm alone 0%, DMSO control 100%, read-out: Maximum activity (% rescue)”, the Emax was determined as 42%.
Turning to `COc1ccc(C(=O)NCCc2cccc(Cl)c2)cc1OC` [Compound 8h], the concentration for a half-maximal effect (EC50) (Table 1, INS-1 cell viability, Tm 0.1 μg/mL, 72 h) is 24 ± 2.1 µM. The “Maximum activity (% rescue)” value (Table 1, INS-1 cells, Tm 0.1 μg/mL, 72 h, Tm alone 0%, DMSO control 100%) was 46% ± 17%.
With `O=C(NCc1ccccc1Cl)c1ccc2c(c1)OCCO2` [Compound 9a], the half-maximal effective concentration (EC50) under setting [2] is 25 ± 6.9 µM. Besides, the “Maximum activity (% rescue)” value under setting [3] was 43% ± 12%.
The like results for `O=C(NCc1ccccc1Br)c1ccc2c(c1)OCCO2` [Compound 9b] were, in that order, 25 ± 2.1 µM and 38% ± 14%.
The like results for `O=C(NCc1cccc(Cl)c1)c1ccc2c(c1)OCCO2` [Compound 9c] were, in that order, 9.5 ± 1.2 µM and 57% ± 11%.
For `O=C(NCc1cccc(Br)c1)c1ccc2c(c1)OCCO2` [Compound 9d], in that order: 5.5 ± 0.7 µM and 69% ± 9%.
Regarding `O=C(NCc1ccc(Cl)cc1)c1ccc2c(c1)OCCO2` [Compound 9e], the “improvement of EC50 value over the corresponding ethylene derivative” value is given as approximately 6 fold. Under setting [1], the “maximum activity (β-cell-protective activity)” value is reported as 69% and the concentration giving a half-maximal response (EC50) was 2.8 µM. Further, the “Maximum activity (% rescue)” value under setting [3] is 69% ± 12%.
In the case of `O=C(NCc1ccc(Cl)c(Cl)c1)c1ccc2c(c1)OCCO2` [Compound 9f], under setting [2], the half-maximal effective concentration (EC50) came out at 3.6 ± 0.9 µM. The “Maximum activity (% rescue)” value under setting [3] is given as 68% ± 10%.
Take `Cc1ccccc1C(=O)NCCc1ccccc1` [Compound 10a]: the “Maximum activity (% rescue)” value under setting [4] is reported as 6% ± 5%.
Turning to `CC(C)Sc1ccccc1C(=O)NCCc1ccccc1` [Compound 10b], under setting [5], the EC50 is more than 30 µM. Moreover, the “Maximum activity (% rescue)” value under setting [4] is on record as 30% ± 8%.
For `O=C(NCCc1ccccc1)c1cccc(F)c1` [Compound 10c], under setting [4], the “Maximum activity (% rescue)” value is listed as less than 0 % rescue.
Still for that read-out and setting: for `O=C(NCCc1ccccc1)c1cccc([N+](=O)[O-])c1` [Compound 10d] the value was less than 0 % rescue; for `Nc1cccc(C(=O)NCCc2ccccc2)c1` [Compound 10e], less than 0 % rescue.
For `CCOc1cccc(C(=O)NCCc2ccccc2)c1` [Compound 10f], the concentration giving a half-maximal response (EC50) under setting [5] amounted to 26 ± 4.5 µM. Further, the “Maximum activity (% rescue)” value under setting [4] is on record as 49% ± 11%.
As for `CS(=O)(=O)Nc1cccc(C(=O)NCCc2ccccc2)c1` [Compound 10g], under setting [5], the EC50 is 25 ± 2.1 µM. In addition, under setting [4], the “Maximum activity (% rescue)” value is recorded as 24% ± 8%.
For `Cc1ccc(C(=O)NCCc2ccccc2)cc1` [Compound 10h], in that order: 20 ± 5.4 µM and 25% ± 5%.
For `C#CCOc1ccc(C(=O)NCCc2ccccc2)cc1` [Compound 10i], in that order: more than 30 µM and 54% ± 8%.
The like results for `CN(C)S(=O)(=O)c1ccc(C(=O)NCCc2ccccc2)cc1` [Compound 10j] were, in that order, 19 ± 2.1 µM and 37% ± 6%.
On to `O=C(NCCc1ccccc1)c1ccc(CN2CCCC2)cc1` [Compound 10k], for which the “maximum activity (β-cell-protective activity)” value under setting [1] was determined as 31%. For the same molecule, the EC50 under setting [5] turned out to be 11 ± 1.9 µM. Under setting [4], the “Maximum activity (% rescue)” value was 31% ± 7%.
As for `O=C(NCCc1ccccc1)c1ccc(CN2CCCCC2)cc1` [Compound 10l], the “maximum activity (β-cell-protective activity)” value under setting [1] is 87%. For the same molecule, the EC50 is, setting by setting: under setting [1], 21 µM; under setting [5], 21 ± 3.5 µM; under setting [6], 21 ± 3.5 µM. The “Maximum activity (% rescue)” value is on record as 87% ± 9% under setting [4] and 87% ± 6% under setting [7].
In the case of `O=C(NCCc1ccccc1)c1ccc(Cl)c(Cl)c1` [Compound 10m], the half-maximal effective concentration (EC50) under setting [5] is 17 ± 6.1 µM. Under setting [4], the “Maximum activity (% rescue)” value is 42% ± 11%.
Regarding `COc1ccc(C(=O)NCCc2ccccc2)cc1C` [Compound 10n], under setting [5], the concentration giving a half-maximal response (EC50) was 15 ± 3.2 µM. Further, the “Maximum activity (% rescue)” value under setting [4] is recorded as 56% ± 8%.
The like results for `O=C(NCCc1ccccc1)c1ccc(F)c(F)c1F` [Compound 10o] were, in that order, 9.9 ± 2.1 µM and 23% ± 6%.
`O=C(NCCc1ccccc1)c1cc(F)c(F)c(F)c1F` [Compound 10p]: the “Maximum activity (% rescue)” value under setting [4] is less than 0 % rescue.
Regarding `O=C(NCCc1ccc(Cl)cc1)c1ccc(CN2CCCCC2)cc1` [Compound 11a], the EC50 under setting [6] came to 21 ± 4.2 µM. Under setting [7], the “Maximum activity (% rescue)” value is recorded as 82% ± 10%.
In the case of `O=C(NCCc1ccc(Cl)c(Cl)c1)c1ccc(CN2CCCCC2)cc1` [Compound 11b], the concentration giving a half-maximal response (EC50) under setting [1] came out at 24 ± 2.7 µM. Further, the “Maximum activity (% rescue)” value under setting [7] was 71% ± 11%.
As to `O=C(NCc1ccc(Cl)cc1)c1ccc(CN2CCCCC2)cc1` [Compound 11c], the concentration giving a half-maximal response (EC50) under setting [6] was 9.5 ± 1.1 µM. In addition, under setting [7], the “Maximum activity (% rescue)” value is on record as 77% ± 7%.
For `O=C(NCc1ccc(Cl)c(Cl)c1)c1ccc(CN2CCCCC2)cc1` [Compound 11d], the “improvement of EC50 value over the corresponding ethylene derivative” value amounted to 13 fold. Also, the concentration for a half-maximal effect (EC50) under setting [1] came to 1.8 ± 0.2 µM. In addition, the “Maximum activity (% rescue)” value under setting [7] is given as 78% ± 10%.
Take `O=C(NCc1ccc(Cl)cc1)c1ccccc1CN1CCCCC1` [Compound 12a]: the 50% effective concentration (EC50) under setting [8] came out at 6.9 ± 1.2 µM. Besides, the “Maximum activity (% rescue)” value under setting [9] is listed as 73% ± 13%.
For `O=C(NCc1ccccc1)c1cccc(CN2CCCCC2)c1` [Compound 12b], in that order: 0.352 ± 0.062 µM and 95% ± 8%.
The like results for `O=C(NCc1ccccc1Cl)c1cccc(CN2CCCCC2)c1` [Compound 12c] were, in that order, 2.04 ± 0.18 µM and 93% ± 7%.
For `O=C(NCc1cccc(Cl)c1)c1cccc(CN2CCCCC2)c1` [Compound 12d], in that order: 0.405 ± 0.057 µM and 90% ± 11%.
`O=C(NCc1ccc(Cl)cc1)c1cccc(CN2CCCCC2)c1` [Compound 12e]: under setting [8], the concentration giving a half-maximal response (EC50) was 0.24 ± 0.06 µM. Also, the “Maximum activity (% rescue)” value under setting [9] is on record as 93% ± 13%.
In the case of `O=C(NCc1ccccc1Cl)c1ccc(CN2CCCCC2)cc1` [Compound 12f], the EC50 under setting [8] worked out at 13 ± 1.6 µM. Moreover, the “Maximum activity (% rescue)” value under setting [9] is 87% ± 15%.
The like results for `O=C(NCc1cccc(Cl)c1)c1ccc(CN2CCCCC2)cc1` [Compound 12g] were, in that order, 2.2 ± 0.3 µM and 80% ± 9%.
For `O=C(NCc1cccc(Br)c1)c1ccc(CN2CCCCC2)cc1` [Compound 12h], in that order: 4.9 ± 0.7 µM and 81% ± 12%.
For `COc1cccc(CNC(=O)c2cccc(CN3CCCCC3)c2)c1` [Compound 13a], in that order: 0.964 ± 0.135 µM and 92% ± 10%.
For `COc1ccc(CNC(=O)c2cccc(CN3CCCCC3)c2)cc1` [Compound 13b], under setting [8], the EC50 turned out to be 1.12 ± 0.21 µM. Besides, under setting [9], the “Maximum activity (% rescue)” value is 93% ± 5%.
For `O=C(NCc1cccc(C(F)(F)F)c1)c1cccc(CN2CCCCC2)c1` [Compound 13c], in that order: 0.246 ± 0.043 µM and 91% ± 14%.

For orientation: EC50 means the concentration at which the effect is half-maximal.
